Laboratory results: patent publication US3950393A, “Aminobenzyl-amides and salts thereof” (Boehringer Ingelheim GmbH, priority 1973, dated 1976)
Where a name gives a salt, the structure may show the parent alone. Read-outs that look alike come from different tables or passages of the source.

Experiments:
[1] = tested on: white mice; experiment: in vivo
Procedure: (§1) The acute toxicity of the test compounds was determined after a single application of 1000 or 2000 mgm/kg p.o., respectively, to 5 white mice each.

[2] = tested on: guinea pigs; experiment: Secretolytic (expectorant) effect in anesthetized guinea pigs after oral application; assay type: in vivo; conditions: 8 mgm/kg oral, within 2 hours, 6-8 animals
Procedure: (§2) The expectorant activity was tested on anesthetized rabbits and guinea pigs after oral application of 8 mgm/kg of the test compound to 6-8 animals. The increase in secretion within 2 hours was calculated from the amounts of secretion before and after application of the substance [see Perry and Boyd in Pharmakol. exp. Therap. 73, 65 (1941)].

[3] = in vivo; conditions: mouse, in vivo, po
Procedure: as §1

[4] = tested on: cats; experiment: Circulatory effect in cats under chloralose-urethane anesthesia after intravenous application; assay type: in vivo; conditions: 2, 4 and 8 mgm/kg intravenous, 3 animals per dose
Procedure: The circulatory effect in cats was determined under chloralose-urethane anesthesia after intravenous application of 2,4 and 8 mgm/kg of the test compound (3 animals per dose).

[5] = tested on: ulcers; experiment: Anti-ulcerogenic activity, acetic acid stomach ulcers, method of K. Takagi et al; assay type: in vivo, female rats; conditions: three weeks with food
Procedure: The inhibiting effect of the test compounds on the formation of ulcers was determined according to the method of K. Takagi et al [Jap. J. Pharmac. 19, 418 (1969)]. The abdominal cavity of anesthetized female rats having a body weight from 220 to 250 gm was opened and the stomach was exposed. Then, 0.05 ml of an aqueous 5% acetic acid solution was injected between the muscularis mucosae and submucosa of the stomach. Thereafter, the abdominal cavity was closed again. The ulcers formed in the mucosa after 3 to 5 days were treated for three weeks by admixing the test compound in question with the food at dosage levels of 50 and 100 mgm/kg (6 animals/dose). The control animals were fed with the pulverized food only.
After treatment for three weeks the animals were killed, the stomach was removed, and the size of the ulcers was determined by measurement of their length and width. The anti-ulcerogenic activity of the test compound was determined by the size of the ulcers comparing with the control values (100%): […]

[6] = tested on: rabbits; experiment: Secretolytic (expectorant) effect in anesthetized rabbits after oral application; assay type: in vivo; conditions: 8 mgm/kg oral, within 2 hours, 6-8 animals
Procedure: as §2

[7] = single application, 5 white mice, read-out: Acute toxicity

Compound | animals died ([1]; single 1000 mgm/kg p.o.) | Increase in secretion [2] [%] | LD50 [3, 7] [mg/kg] | animals died ([1]; single 2000 mgm/kg p.o.) | Circulatory effect [4] | reduction of the ulcers compared with control values ([5]; peroral dosage of 50 mgm/kg) [%] | reduction of the ulcers compared with control values ([5]; peroral dosage of 100 mgm/kg) [%] | LD50 [3] [mg/kg] | Increase in secretion [6] [%]
2-amino-3-bromo-N-cyclohexyl-N-ethyl-3-fluoro-benzylamine hydrochloride | 0 out of 5 | 100 |  |  |  |  |  |  | 
CCOC(=O)c1cc(Br)c(N)c(CN(CC)CC)c1.Cl [A, 2-amino-3-bromo-5-carbethoxy-N,N-diethyl-benzylamine hydrochloride] |  | 90 | > 2000 | 0 out of 5 | no change | 52 | 79 |  | 
CCN(Cc1cc(C(=O)O)cc(Br)c1N)C1CCCCC1.Cl [B, 2-amino-3-bromo-5-carboxy-N-cyclohexyl-N-ethyl-benzylamine hydrochloride] | 0 out of 5 | 81 | > 1000 |  | no change |  |  |  | 
Cc1cc(Br)cc(CN2CCCCCC2)c1N [D, N-(2-amino-5-bromo-3-methyl-benzyl)-hexamethyleneamine dihydrochloride] | 0 out of 5 |  |  |  |  |  |  | > 1000 | 72
CC(C)(C)c1cc(N)c(CN2CCOCC2)cc1Br.Cl.Cl [E, N-(2-amino-5-bromo-4-tert.butyl-benzyl)-morpholine dihydrochloride] | 0 out of 5 |  | > 1000 |  |  |  |  |  | 77
CC(=O)c1cc(Br)c(N)c(CN(C)C)c1 [F, 5-acetyl-2-amino-3-bromo-N,N-dimethyl-benzylamine] | 2 out of 5 |  | ~1000 |  |  |  |  |  | 75
CN(C)Cc1cc(F)cc(Br)c1N.Cl [G, 2-amino-3-bromo-N,N-dimethyl-5-fluoro-benzylamine hydrochloride] | 0 out of 5 | 84 | > 1000 |  |  |  |  |  | 
